Results published in patent publication US4517359A, “11-Methyl-11-aza-4-0-cladinosyl-6-0-desosaminyl-15-ethyl-7,1 3,14-trihydroxy-3,5,7,9,12,14-hexamethyl-oxacyclopentadecane-2-one and derivatives thereof” (Sour Pliva farmaceutska, kemijska prehrambena i kozmeticka …, priority 1981, dated 1985).
Converted amounts (≈) assume the structure as drawn. Read-outs that look alike come from different tables or passages of the source.

How the values were obtained:
[1] = test system: Streptococcus faecalis ATCC 8043; experiment: Minimum Inhibitory Concentration (MIC), in vitro; format: cell-based; details: Enterococcus faecalis
[2] = test system: Staphylococcus epidermidis ATCC 12228; experiment: Minimum Inhibitory Concentration (MIC), in vitro; format: cell-based
[3] = test system: Staphylococcus aureus ATCC 6538-P; experiment: Minimum Inhibitory Concentration (MIC), in vitro; format: cell-based
[4] = test system: Micrococcus flavus ATCC 10240; experiment: Minimum Inhibitory Concentration (MIC), in vitro; format: cell-based
Sarcina lutea ATCC 9341 = experiment: Minimum Inhibitory Concentration (MIC), in vitro; format: cell-based; details: Micrococcus luteus
[5] = test system: Bacillus cereus var. mycoides ATCC 11778; experiment: microbe, parasite or virus in culture; format: cell-based; details: ATCC11778, read-out: Minimum Inhibitory Concentration (MIC)
[6] = test system: Bacillus subtilis ATCC 6633; experiment: Minimum Inhibitory Concentration (MIC), in vitro; format: cell-based
bacteria = details: versus erythromycin A (U.S. Pat. No. 3,417,077; Rocz. Chem. 46, 2212-2217, 1972); cited from earlier work
[7] = test system: series of test microorganisms; experiment: in vitro test on a series of test microorganisms (MIC), overall; format: cell-based; details: test strains of Tables 1 and 2; in comparison with starting 11-aza-10-deoxo-10-dihydro erythromycin A
Protocol: The new compounds were tested in vitro on a series of test microorganisms.

[8] = ATCC8043, Streptococcus faecalis ATCC 8043, in vitro, read-out: Minimum Inhibitory Concentration (MIC)
[9] = ATCC12228, Staphylococcus epidermidis ATCC 12228, in vitro, read-out: Minimum Inhibitory Concentration (MIC)
[10] = ATCC6538, Staphylococcus aureus ATCC 6538-P, in vitro, read-out: Minimum Inhibitory Concentration (MIC)
[11] = ATCC10240, Micrococcus flavus ATCC 10240, in vitro, read-out: Minimum Inhibitory Concentration (MIC)
[12] = ATCC9341, Sarcina lutea ATCC 9341, in vitro, read-out: Minimum Inhibitory Concentration (MIC)
[13] = ATCC6633, Bacillus subtilis ATCC 6633, in vitro, read-out: Minimum Inhibitory Concentration (MIC)

Structure (SMILES) | MIC [1, 8] | MIC [2, 9] | MIC [3, 10] | MIC [4, 11] | MIC (Sarcina lutea ATCC 9341; [12]) | MIC [5] | MIC [6, 13] | MIC ([1]; ATCC8043, read-out: Minimum Inhibitory Concentration (MIC)) | MIC ([2]; Staphylococcus epidermidis, ATCC12228, read-out: Minimum Inhibitory Concentration (MIC)) | MIC ([3]; Staphylococcus aureus, ATCC6538, read-out: Minimum Inhibitory Concentration (MIC)) | MIC ([4]; Micrococcus flavus, ATCC10240, read-out: Minimum Inhibitory Concentration (MIC)) | MIC (Sarcina lutea ATCC 9341; ATCC9341, read-out: Minimum Inhibitory Concentration (MIC)) | MIC ([6]; Bacillus subtilis, ATCC6633, read-out: Minimum Inhibitory Concentration (MIC)) | antibacterial activity compared with the starting antibiotic (bacteria) | antibacterial activity in words [7]
CC[C@H]1OC(=O)[C@H](C)[C@@H](O[C@H]2C[C@@](C)(OC)[C@@H](O)[C@H](C)O2)[C@H](C)[C@@H](O[C@@H]2O[C@H](C)C[C@H](N(C)C)[C@H]2OC(C)=O)[C@](C)(O)C[C@@H](C)CN(C)[C@H](C)[C@H]2OC(=O)O[C@@]21C [Example 8, 2'-acetyl-N-methyl-11-aza-10-deoxo-10-dihydro erythromycin A 13,14-cyclic carbonate] | 0.05 µg/mL (≈ 0.0612 µM) | 0.5 µg/mL (≈ 0.612 µM) | 0.1 µg/mL (≈ 0.122 µM) | 0.1 µg/mL (≈ 0.122 µM) | 0.05 µg/mL (≈ 0.0612 µM) | 0.1 µg/mL (≈ 0.122 µM) | 0.1 µg/mL (≈ 0.122 µM) |  |  |  |  |  |  |  | 
CC[C@H]1OC(=O)[C@H](C)[C@@H](O[C@H]2C[C@@](C)(OC)[C@@H](OC(C)=O)[C@H](C)O2)[C@H](C)[C@@H](O[C@@H]2O[C@H](C)C[C@H](N(C)C)[C@H]2OC(C)=O)[C@](C)(O)C[C@@H](C)CN(C)[C@H](C)[C@@H](O)[C@]1(C)O [Example 3, 2',4"-diacetyl-N-methyl-11-aza-10-deoxo-10-dihydro erythromycin A] | 0.5 µg/mL (≈ 0.6 µM) | 2.5 µg/mL (≈ 3 µM) | 0.5 µg/mL (≈ 0.6 µM) | 0.1 µg/mL (≈ 0.12 µM) | 0.1 µg/mL (≈ 0.12 µM) | 0.5 µg/mL (≈ 0.6 µM) | 2.5 µg/mL (≈ 3 µM) |  |  |  |  |  |  |  | 
CC[C@H]1OC(=O)[C@H](C)[C@@H](O[C@H]2C[C@@](C)(OC)[C@@H](O)[C@H](C)O2)[C@H](C)[C@@H](O[C@@H]2O[C@H](C)C[C@H](N(C)C)[C@H]2OC(C)=O)[C@](C)(O)C[C@@H](C)CN(C)[C@H](C)[C@@H](O)[C@]1(C)O [Example 2, 2'-acetyl-N-methyl-11-aza-10-deoxo-10-dihydro erythromycin A] |  |  |  |  |  | 0.5 µg/mL (≈ 0.632 µM) |  | 0.1 µg/mL (≈ 0.126 µM) | 0.5 µg/mL (≈ 0.632 µM) | 0.5 µg/mL (≈ 0.632 µM) | 0.5 µg/mL (≈ 0.632 µM) | 0.1 µg/mL (≈ 0.126 µM) | 0.1 µg/mL (≈ 0.126 µM) |  | 
CC[C@H]1OC(=O)[C@H](C)[C@@H](O[C@H]2C[C@@](C)(OC)[C@@H](O)[C@H](C)O2)[C@H](C)[C@@H](O[C@@H]2O[C@H](C)C[C@H](N(C)C)[C@H]2O)[C@](C)(O)C[C@@H](C)CN[C@H](C)[C@@H](O)[C@]1(C)O [Standard, 11-aza-10-deoxo-10-dihydro erythromycin A, reference compound] | 0.05 µg/mL (≈ 0.068 µM) | 0.5 µg/mL (≈ 0.68 µM) | 0.5 µg/mL (≈ 0.68 µM) | 0.05 µg/mL (≈ 0.068 µM) | 0.05 µg/mL (≈ 0.068 µM) | 0.5 µg/mL (≈ 0.68 µM) | 0.5 µg/mL (≈ 0.68 µM) |  |  |  |  |  |  |  | 
CC[C@H]1OC(=O)[C@H](C)[C@@H](O[C@H]2C[C@@](C)(OC)[C@@H](O)[C@H](C)O2)[C@H](C)[C@@H](O[C@@H]2O[C@H](C)C[C@H](N(C)C)[C@H]2O)[C@](C)(O)C[C@@H](C)C(=O)[C@H](C)[C@H]2OC(=O)O[C@@]21C [11,12-cyclic carbonate of erythromycin A] |  |  |  |  |  |  |  |  |  |  |  |  |  | improved antibacterial activity | 
CC[C@H]1OC(=O)[C@H](C)[C@@H](O[C@H]2C[C@@](C)(OC)[C@@H](O)[C@H](C)O2)[C@H](C)[C@@H](O[C@@H]2O[C@H](C)C[C@H](N(C)C)[C@H]2O)[C@](C)(O)C[C@@H](C)CN(C)[C@H](C)[C@@H](O)[C@]1(C)O [Example 1, N-methyl-11-aza-10-deoxo-10-dihydro erythromycin A] | 0.01 µg/mL (≈ 0.0134 µM) | 0.5 µg/mL (≈ 0.668 µM) | 0.5 µg/mL (≈ 0.668 µM) | 0.01 µg/mL (≈ 0.0134 µM) | 0.05 µg/mL (≈ 0.0668 µM) | 0.5 µg/mL (≈ 0.668 µM) | 0.1 µg/mL (≈ 0.134 µM) |  |  |  |  |  |  |  | superior effect on some tested microorganisms
CCC(=O)O[C@H]1[C@H](O[C@@H]2[C@@H](C)[C@H](O[C@H]3C[C@@](C)(OC)[C@@H](O)[C@H](C)O3)[C@@H](C)C(=O)O[C@H](CC)[C@@](C)(O)[C@H](O)[C@@H](C)N(C)C[C@H](C)C[C@@]2(C)O)O[C@H](C)C[C@@H]1N(C)C [Example 5, 2'-propionyl-N-methyl-11-aza-10-dihydro erythromycin A] | 0.05 µg/mL (≈ 0.0621 µM) | 0.05 µg/mL (≈ 0.0621 µM) | 0.1 µg/mL (≈ 0.124 µM) | 0.05 µg/mL (≈ 0.0621 µM) | 0.05 µg/mL (≈ 0.0621 µM) | 0.5 µg/mL (≈ 0.621 µM) | 0.5 µg/mL (≈ 0.621 µM) |  |  |  |  |  |  |  | 
CCC(=O)O[C@H]1[C@H](O[C@@H]2[C@@H](C)[C@H](O[C@H]3C[C@@](C)(OC)[C@@H](O)[C@H](C)O3)[C@@H](C)C(=O)O[C@H](CC)[C@@]3(C)OC(=O)O[C@@H]3[C@@H](C)N(C)C[C@H](C)C[C@@]2(C)O)O[C@H](C)C[C@@H]1N(C)C [Example 10, 2'-propionyl-N-methyl-11-aza-10-deoxo-10-dihydro erythromycin A 13,14-cyclic carbonate] | 0.1 µg/mL (≈ 0.12 µM) | 0.5 µg/mL (≈ 0.602 µM) | 0.5 µg/mL (≈ 0.602 µM) | 0.5 µg/mL (≈ 0.602 µM) | 0.05 µg/mL (≈ 0.0602 µM) | 0.5 µg/mL (≈ 0.602 µM) | 1 µg/mL (≈ 1.2 µM) |  |  |  |  |  |  |  | 
CC[C@H]1OC(=O)[C@H](C)[C@@H](O[C@H]2C[C@@](C)(OC)[C@@H](OC(C)=O)[C@H](C)O2)[C@H](C)[C@@H](O[C@@H]2O[C@H](C)C[C@H](N(C)C)[C@H]2OC(C)=O)[C@](C)(O)C[C@@H](C)CN(C)[C@H](C)[C@H]2OC(=O)O[C@@]21C [Example 9, 2',4"-diacetyl-N-methyl-11-aza-10-deoxo-10-dihydro erythromycin A 13,14-cyclic carbonate] | 0.5 µg/mL (≈ 0.582 µM) | 2.5 µg/mL (≈ 2.91 µM) | 2.5 µg/mL (≈ 2.91 µM) | 1 µg/mL (≈ 1.16 µM) | 0.1 µg/mL (≈ 0.116 µM) | 2.5 µg/mL (≈ 2.91 µM) | 2.5 µg/mL (≈ 2.91 µM) |  |  |  |  |  |  |  | 
CCC(=O)O[C@H]1[C@H](O[C@@H]2[C@@H](C)[C@H](O[C@H]3C[C@@](C)(OC)[C@@H](OC(=O)CC)[C@H](C)O3)[C@@H](C)C(=O)O[C@H](CC)[C@@]3(C)OC(=O)O[C@@H]3[C@@H](C)N(C)C[C@H](C)C[C@@]2(C)O)O[C@H](C)C[C@@H]1N(C)C [Example 11, 2',4"-dipropionyl-N-methyl-11-aza-10-deoxo-10-dihydro erythromycin A 13,14-cyclic carbonate] | 0.1 µg/mL (≈ 0.113 µM) | 2.5 µg/mL (≈ 2.82 µM) | 2.5 µg/mL (≈ 2.82 µM) | 0.5 µg/mL (≈ 0.564 µM) | 0.05 µg/mL (≈ 0.0564 µM) | 1 µg/mL (≈ 1.13 µM) | 1 µg/mL (≈ 1.13 µM) |  |  |  |  |  |  |  | 
CC[C@H]1OC(=O)[C@H](C)[C@@H](O[C@H]2C[C@@](C)(OC)[C@@H](O)[C@H](C)O2)[C@H](C)[C@@H](O[C@@H]2O[C@H](C)C[C@H](N(C)C)[C@H]2O)[C@](C)(O)C[C@@H](C)CN(C)[C@H](C)[C@H]2OC(=O)O[C@@]21C [Example 7, N-methyl-11-aza-10-deoxo-10-dihydro erythromycin A 13,14-cyclic carbonate] | 0.05 µg/mL (≈ 0.0645 µM) | 0.5 µg/mL (≈ 0.645 µM) | 0.1 µg/mL (≈ 0.129 µM) | 0.1 µg/mL (≈ 0.129 µM) | 0.1 µg/mL (≈ 0.129 µM) | 0.1 µg/mL (≈ 0.129 µM) | 0.1 µg/mL (≈ 0.129 µM) |  |  |  |  |  |  |  | 
CC[C@H]1OC(=O)[C@H](C)[C@@H](O[C@H]2C[C@@](C)(OC)[C@@H](OC(C)=O)[C@H](C)O2)[C@H](C)[C@@H](O[C@@H]2O[C@H](C)C[C@H](N(C)C)[C@H]2OC(C)=O)[C@](C)(O)C[C@@H](C)CN(C)[C@H](C)[C@@H](OC(C)=O)[C@]1(C)O [Example 4, 2',4"-13-triacetyl-N-methyl-11-aza-10-deoxo-10-dihydro erythromycin A] |  |  |  |  |  |  |  |  |  |  |  |  |  |  | did not exhibit any satisfactory activity
CCC(=O)O[C@H]1[C@H](O[C@@H]2[C@@H](C)[C@H](O[C@H]3C[C@@](C)(OC)[C@@H](OC(=O)CC)[C@H](C)O3)[C@@H](C)C(=O)O[C@H](CC)[C@@](C)(O)[C@H](O)[C@@H](C)N(C)C[C@H](C)C[C@@]2(C)O)O[C@H](C)C[C@@H]1N(C)C [Example 6, 2',4"-dipropionyl-N-methyl-11-aza-10-deoxo-10-dihydro erythromycin] | 0.1 µg/mL (≈ 0.116 µM) | 0.1 µg/mL (≈ 0.116 µM) | 0.5 µg/mL (≈ 0.581 µM) | 0.5 µg/mL (≈ 0.581 µM) | 0.05 µg/mL (≈ 0.0581 µM) | 0.5 µg/mL (≈ 0.581 µM) | 0.1 µg/mL (≈ 0.116 µM) |  |  |  |  |  |  |  | 
